Data on 20 molecules can be found in article PMC10648204, “Discovery of Novel Biphenyl Carboxylic Acid Derivatives as Potent URAT1 Inhibitors” (Molecules, 2023).

The structures appear in SMILES notation.

Series [1] addresses T1, human URAT1 (Homo sapiens, UniProt Q96S37).
T1 construct: expressed in transfected cells; host or cells: HEK293T cells (ATCC CRL-11268)
T1 sequence (Q96S37 1-553): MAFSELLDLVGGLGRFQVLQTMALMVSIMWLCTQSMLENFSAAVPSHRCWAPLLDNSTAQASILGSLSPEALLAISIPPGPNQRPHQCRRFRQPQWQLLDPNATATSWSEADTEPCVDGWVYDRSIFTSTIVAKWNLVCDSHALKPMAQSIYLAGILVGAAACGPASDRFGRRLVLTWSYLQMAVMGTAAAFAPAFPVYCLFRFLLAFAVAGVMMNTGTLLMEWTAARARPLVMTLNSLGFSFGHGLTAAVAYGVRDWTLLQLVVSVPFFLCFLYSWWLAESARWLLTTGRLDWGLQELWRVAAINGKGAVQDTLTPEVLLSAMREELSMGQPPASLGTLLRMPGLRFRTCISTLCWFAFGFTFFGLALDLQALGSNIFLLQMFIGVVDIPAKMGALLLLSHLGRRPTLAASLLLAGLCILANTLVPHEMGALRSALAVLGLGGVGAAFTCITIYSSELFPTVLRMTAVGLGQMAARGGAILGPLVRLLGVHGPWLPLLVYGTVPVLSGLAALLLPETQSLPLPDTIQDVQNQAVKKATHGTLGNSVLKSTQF
The series can be described thus: In vitro URAT1 inhibitory assay (14C-uric acid uptake in HEK293T cells expressing human URAT1). Format: cell-based. The conditions noted are these: HEK293-URAT1 cells, 14C-labeled uric acid substrate; for inhibition at 10 µM: HEK-293T, 10 μM compound, mean of three measurements. Here is the method:
All the target compounds were evaluated for their URAT1 inhibitory activities in HEK293-URAT1 cells using ^14C-labeled uric acid as the substrate. […] The SAR exploration on series A compounds mainly focused on the hydrophobic component. […] For series B compounds, the ortho-substituted biphenyl carboxylic acid was initially kept, and various aromatic components were incorporated (B1–B25). […] Different substituents were introduced onto the 4-pyridyl (B15–B21).
In Vitro URAT1 Inhibitory Assay. A transient expression system of human URAT1 in HEK293T cells was constructed to measure ^14C-uric acid transport. […] The cell cryovials were removed from liquid nitrogen storage, and immediately placed on dry ice prior to thawing. […] The cell suspension was transferred into a 15 mL centrifuge tube, and 10 mL complete medium (DMEM +10% FBS +500 μg/mL G418 +1% P/S) was added. After centrifugation at 1000 rpm for 5 min, the supernatant was discarded, and cell precipitation was resuspended in 5 mL complete medium and transferred to a T75 culture flask. […] The uptake assay test could be carried out after cell culture adherent to the well in the 96-well plate. Then, the cells were washed with 200 µL/well of pre-warmed Cl^- free HBSS buffer, and all buffer was removed at the last washing. 50 µL/well of Cl^- free HBSS Buffer containing Uric acid [8-^14C] (2.5 μCi/mL) and samples were added to the cells, and incubated for 8 min. Then, the cells were washed three times with Cl^- free HBSS Buffer and all buffer was removed at the last washing. 50 µL/well of lysis buffer (100 mM NaOH) was added to the lysate cells and stirred at 900 rpm for 5 min. 150 µL/well MicroScint™-40 cocktail was added and agitated at 900 rpm for 5 min. Finally, the 96-plate was counted in a MicroBeta2 (PerkinElmer). The data were analyzed and IC50 values was calculated with GraphPad Prism 6 software.

For orientation: IC50 means the concentration that inhibits the measured activity by half. One may read the inhibition as the percentage by which the read-out fell short of the control. Low values mean a response near the control, high ones a response far below the control. Regarding `O=C(O)c1ccccc1-c1ccccc1C(=O)N1CCCc2ccccc21` [Compound A1], in series [1], half-maximal inhibition (IC50) required 930 nM and testing at 10 µM gave an inhibition of 89%.
For orientation: melting point means the temperature of the solid-liquid transition. The molecule `O=C(O)c1ccccc1-c1ccccc1C(=O)N1CCOc2ccccc21` [Compound A2] returned a melting point of 174 to 176 °C. In series [1], this molecule registered an IC50 of 3900 nM and an inhibition at 10 µM of 75%.
Turning to `O=C(O)c1ccccc1-c1ccccc1C(=O)N1CCSc2ccccc21` [Compound A3], the melting point was 193 to 195 °C. Also, at 10 µM the inhibition in series [1] was 78%.
For `O=C(O)c1ccccc1-c1ccccc1C(=O)N1CCc2ccccc21` [Compound A4], the melting point was 195 to 196 °C. Besides, in series [1], the concentration for half-maximal inhibition (IC50) was 4700 nM and 10 µM produced 77% inhibition.
Take `O=C(O)c1ccccc1-c1ccccc1C(=O)N1CCCCc2ccccc21` [Compound A5]: the melting point fell in the range of 215 to 217 °C. This molecule also came in with an inhibition at 10 µM in series [1] of 72%.
`O=C(O)c1ccccc1-c1ccccc1C(=O)N1CCCc2ccc(Br)cc21` [Compound A6]: the melting point lay within 231 to 233 °C. In series [1], this molecule had a half-inhibitory concentration (IC50) of 1100 nM and an inhibition at 10 µM of 84%.
For `O=C(O)c1ccccc1-c1ccccc1C(=O)N1CCCc2cc(Br)ccc21` [Compound A7], the melting point lay within 261 to 262 °C. In addition, in series [1], half-maximal inhibition (IC50) required 1100 nM and the inhibition at 10 µM turned out to be 94%.
`O=C(O)c1ccccc1-c1ccccc1C(=O)N1CCCc2c(Br)cccc21` [Compound A8]: the melting point is 201 to 202 °C. In series [1], this molecule returned a half-inhibitory concentration (IC50) of 1600 nM and an inhibition at 10 µM of 90%.
For the molecule `O=C(O)c1ccccc1-c1ccccc1C(=O)N1CCCc2ccc(Cl)cc21` [Compound A9], the melting point fell in the range of 233 to 234 °C. In series [1], this molecule had an IC50 of 2200 nM and an inhibition at 10 µM of 85%.
`COc1ccc2c(c1)CCCN2C(=O)c1ccccc1-c1ccccc1C(=O)O` [Compound A10] displayed a melting point of 198 to 200 °C. In series [1], the IC50 came out at 1800 nM and the inhibition at 10 µM stood at 88%.
The like results for `Cc1ccc2c(c1)CCCN2C(=O)c1ccccc1-c1ccccc1C(=O)O` [Compound A11] were, in that order, 220 to 222 °C, 2100 nM and 91%.
The molecule `O=C(O)c1ccccc1-c1ccccc1C(=O)N1CCCc2ccc(-c3ccc(F)cc3)cc21` [Compound A12] gave a melting point of 245 to 246 °C. The inhibition at 10 µM in series [1] is 29%.
Turning to `O=C(O)c1ccccc1-c1ccccc1C(=O)N1CCCc2ccc(-c3ccncc3)cc21` [Compound A13], the melting point was in the range of 266 to 268 °C. In series [1], this molecule yielded an IC50 of 1500 nM and an inhibition at 10 µM of 86%.
Molecule `COc1cccc(-c2ccc3c(c2)N(C(=O)c2ccccc2-c2ccccc2C(=O)O)CCC3)c1` [Compound A14] displayed a melting point of 177 to 179 °C. The molecule also came in with an inhibition at 10 µM in series [1] of 58%.
The like results for `O=C(O)c1ccccc1-c1ccccc1C(=O)N1CCc2ccccc2C1` [Compound A15] were, in that order, 171 to 173 °C and 25%.
Molecule `CN(C(=O)c1ccccc1-c1ccccc1C(=O)O)c1ccccc1` [Compound A16] returned a melting point of 169 to 172 °C. Further, the inhibition at 10 µM in series [1] was determined as 13%.
In the case of `O=C(O)c1ccccc1-c1ccccc1C(=O)NCc1ccncc1` [Compound A17], the melting point lay within 118 to 120 °C. Further, in series [1], the inhibition at 10 µM is less than 10%.
For `O=C(O)c1ccccc1-c1ccccc1C(=O)Nc1ccncc1` [Compound A18] the same measures were 190 to 191 °C and 11%.
The molecule `O=C(O)c1ccccc1-c1ccccc1C(=O)Nc1ccnc2ccccc12` [Compound A19] returned a melting point of 176 to 178 °C. Besides, at 10 µM the inhibition in series [1] was 24%.
In series [1], `O=C(O)c1ccccc1-c1ccccc1-c1nc(-c2ccncc2Cl)no1` [Compound B21] returned a half-maximal inhibitory concentration (IC50) of 170 nM and an inhibition at 10 µM of 98%.
